Patent publication US20240287074A1, “SALTS AND CRYSTALS” (Kinoxis Therapeutics Pty Ltd, priority 2020, published 2024)
Where a name gives a salt, the structure may show the parent alone. Read-outs that look alike come from different tables or passages of the source.

How the values were obtained:
Assay type in all cases: physicochemical
[1] = Solvent solubility screen of phosphate salt; conditions: for solubility: read-out: Approx. Solubility
Protocol: Selected solvent was added in 50 μL aliquots to approximately 10 mg of poorly crystalline phosphate pattern (obtained from above lyophilisation). Between each addition, the mixture was checked for dissolution and where no dissolution was apparent, the mixture was heated to about 40° C. and checked again. This procedure was continued until dissolution was observed or until 2 mL of solvent had been added. Samples in which dissolution was observed were stored uncapped at ambient temperature to allow evaporation. Samples in which dissolution was not observed were filtered via centrifugation. All observed solids were analyzed by XRPD. The solvent systems used during the solvent solubility screen are detailed in Table 3.

[2] = Storage of phosphate pattern 2 at 40° C./75% RH; conditions: about 16 hours
Protocol: The samples were analyzed by XRPD.

[3] = Dynamic / gravimetric vapour sorption (DVS/GVS) hygroscopicity; conditions: for hygroscopicity: DVS, 25° C.; for DVS mass increase: at 90% RH
Protocol: Approximately, 10-20 mg of sample was placed into a mesh vapour sorption balance pan and loaded into a DVS Intrinsic dynamic vapour sorption balance by Surface Measurement Systems. The sample was subjected to a ramping profile from 40-90% relative humidity (RH) at 10% increments, maintaining the sample at each step until a stable weight had been achieved (dm/dt 0.004%, minimum step length 30 minutes, maximum step length 500 minutes) at 25° C. After completion of the sorption cycle, the sample was dried using the same procedure to 0% RH and then a second sorption cycle back to 40% RH. Two cycles were performed. The weight change during the sorption/desorption cycles were plotted, allowing for the hygroscopic nature of the sample to be determined. XRPD analysis was then carried out on any solid retained.
Approximately 10-20 mg of sample was placed into a mesh vapour sorption balance pan and loaded into an IGASorp Moisture Sorption Analyser balance by Hiden Analytical. The sample was subjected to a ramping profile from 40-90% relative humidity (RH) at 10% increments, maintaining the sample at each step until a stable weight had been achieved (98% step completion, minimum step length 30 minutes, maximum step length 60 minutes) at 25° C. After completion of the sorption cycle, the sample was dried using the same procedure to 0% RH, and finally taken back to the starting point of 40% RH. Two cycles were performed. The weight change during the sorption/desorption cycles were plotted, allowing for the hygroscopic nature of the sample to be determined.

[4] = Primary salt screen: XRPD pattern after drying and after 40° C./75% RH
Protocol: The following procedure was used: • Approximately 30 mg of 1-methyl-1,4,5,10-tetrahydropyrazolo[3,4-b][1,5]benzodiazepine freebase was weighed into 5×1.5 mL glass vials. • 300 μL of selected solvent system was added to each vial to form a mobile slurry, and a beige slurry was observed. • 1.05 (or 0.525 for the hemi experiments) equivalents of acid counterion (see Table 1) was added to each sample and initial observations were recorded. • The samples were temperature cycled between ambient and 40° C. in 4-hour cycles for about 72 hours. • The samples were collected, and observations made. • Samples in which solids were observed were filtered via centrifugation and the solids were loaded onto a multi-well XRPD plate and analyzed by XRPD. • Samples in which no solids were observed were uncapped and left undisturbed to allow evaporation at ambient temperature.

[5] = 1-week stability studies (XRPD, HPLC); conditions: 1 week; ambient temperature, light and humidity; 40° C./75% RH; 80° C.
Protocol: The isolated 1-methyl-1,4,5,10-tetrahydropyrazolo[3,4-b][1,5]benzodiazepine freebase was characterized by TG/DTA, DSC, DVS with post-DVS, XRPD, HPLC, ^1H NMR and LC-MS, as per the methods detailed above. The 1-methyl-1,4,5,10-tetrahydropyrazolo[3,4-b][1,5]benzodiazepine freebase was stored at 40° C./75% relative humidity (RH) for 1 week to determine the stability of the material at increased RH and to identify potential hydrate formation.
One-week stability studies were conducted on the freebase (example 1), phosphate form 1 (example 3) and L-tartrate form 1 (example 5) salts using the following procedures: • Approximately 20 mg of each form was weighed into 3×2 mL glass vials. • One vial for each form was stored under the following conditions for 1-week: • 1. Ambient temperature, light and humidity (unsealed vial) • 2. 40° C./75% RH (unsealed vial) • 3. 80° C. (sealed vial) • The samples were collected after 1-week and observations were made. • The solids were analyzed by XRPD and HPLC.

[6] = Salt disproportionation studies in deionized water; conditions: about 24 hours; for salt disproportionation: slurry in deionized water, ambient temperature
Protocol: The following procedure was used during the salt disproportionation studies: • Approximately 20 mg of phosphate form 1 (Example 3) and L-tartrate form 1 (Example 5) were weighed into 2 mL glass vials. • Deionized water was added to each sample in 100 μL aliquots until a mobile slurry was observed. • The slurries were agitated at ambient temperature for about 24 hours. • The slurries were collected and filtered via centrifugation. • The isolated solids were analyzed by XRPD. • The pH of the mother liquors were recorded.

[7] = Hydration studies in methanol/water mixtures; conditions: MeOH/water mixtures, water activity 0.2, 0.6, 0.8, about 24 hours
Protocol: The following procedure was used during the hydration studies: • Approximately 20 mg of phosphate form 1 (Example 3) and L-tartrate form 1 (Example 5) were weighed into 2 mL glass vials. • Selected methanol/deionized water mixtures (see Table 5) were added to each sample in 100 μL aliquots until a mobile slurry was observed. • The slurries were agitated at ambient temperature for about 24 hours. • The slurries were collected and filtered via centrifugation. • The isolated solids were analyzed by XRPD. • The pH of the mother liquors were recorded.

[8] = Thermodynamic solubility in PBS buffer pH 7.4
Protocol: The thermodynamic solubility of freebase (example 1), phosphate form 1 (example 3) and L-tartrate form 1 (example 5) were assessed in phosphate buffered saline (PBS) buffer at pH 7.4 according to the following procedure: • Approximately 30 mg of each form was weighed into 2 mL glass vials. • 100 μL of buffer solution was added to each vial until partial dissolution was observed. • The observed slurries were agitated at ambient temperature for about 24 hours. • The samples were collected, and observations were recorded. • The samples were filtered via centrifugation. • The pH of the mother liquors were recorded. • The concentration of the mother liquors were recorded by HPLC.

## Cn1ncc2c1Nc1ccccc1NC2 [phosphate pattern 2, phosphoric acid addition salt of 1-methyl-1,4,5,10-tetrahydropyrazolo[3,4-b][1,5]benzodiazepine]
[1]; 1,4-dioxane, 40 °C, organic solvent or mixture, thermodynamic from solid, 1,4-Dioxane
  solubility: < 5000 µg/mL
[1]; 2-Butanol, 40 °C, organic solvent or mixture, thermodynamic from solid, 2-Butanol
  solubility: < 5000 µg/mL
[1]; 2-Ethoxyethanol, 40 °C, organic solvent or mixture, thermodynamic from solid, 2-Ethoxyethanol
  solubility: < 5000 µg/mL
[1]; 2-methyl tetrahydrofuran, 40 °C, organic solvent or mixture, thermodynamic from solid, 2-Methyl tetrahydrofuran
  solubility: < 5000 µg/mL
[1]; 2-propanol, 40 °C, organic solvent or mixture, thermodynamic from solid, 2-Propanol
  solubility: < 5000 µg/mL
[1]; 80% 2-propanol/20% water (% v/v), 40 °C, organic solvent or mixture, thermodynamic from solid, 80% 2-Propanol/20% water (% v/v)
  solubility: < 5000 µg/mL
[1]; 80% acetone/20% water (% v/v), 40 °C, organic solvent or mixture, thermodynamic from solid, 80% Acetone/20% water (% v/v)
  solubility: < 5000 µg/mL
[1]; 80% acetonitrile/20% water (% v/v), 40 °C, organic solvent or mixture, thermodynamic from solid, 80% Acetonitrile/20% water (% v/v)
  solubility: < 5000 µg/mL
[1]; 80% methanol/20% water (% v/v), 40 °C, organic solvent or mixture, thermodynamic from solid, 80% Methanol/20% water (% v/v)
  solubility: < 5000 µg/mL
[1]; N-Methyl pyrrolidone
  Approx. Solubility: 17000 µg/mL
[1]; N-methyl pyrrolidone, organic solvent or mixture, thermodynamic from solid, N-Methyl pyrrolidone
  solubility: 10000 to 100000 µg/mL
[1]; Water
  Approx. Solubility: 17000 µg/mL
[1]; acetone, 40 °C, organic solvent or mixture, thermodynamic from solid, Acetone
  solubility: < 5000 µg/mL
[1]; acetonitrile, 40 °C, organic solvent or mixture, thermodynamic from solid, Acetonitrile
  solubility: < 5000 µg/mL
[1]; anisole, 40 °C, organic solvent or mixture, thermodynamic from solid, Anisole
  solubility: < 5000 µg/mL
[1]; chloroform, 40 °C, organic solvent or mixture, thermodynamic from solid, Chloroform
  solubility: < 5000 µg/mL
[1]; ethanol, 40 °C, organic solvent or mixture, thermodynamic from solid, Ethanol
  solubility: < 5000 µg/mL
[1]; ethanol/water Aw 0.4, 40 °C, organic solvent or mixture, thermodynamic from solid, Ethanol/water Aw 0.4
  solubility: < 5000 µg/mL
[1]; ethanol/water Aw 0.5, 40 °C, organic solvent or mixture, thermodynamic from solid, Ethanol/water Aw 0.5
  solubility: < 5000 µg/mL
[1]; ethanol/water Aw 0.6, 40 °C, organic solvent or mixture, thermodynamic from solid, Ethanol/water Aw 0.6
  solubility: < 5000 µg/mL
[1]; ethanol/water Aw 0.7, 40 °C, organic solvent or mixture, thermodynamic from solid, Ethanol/water Aw 0.7
  solubility: < 5000 µg/mL
[1]; ethanol/water Aw 0.8, 40 °C, organic solvent or mixture, thermodynamic from solid, Ethanol/water Aw 0.8
  solubility: < 5000 µg/mL
[1]; ethyl acetate, 40 °C, organic solvent or mixture, thermodynamic from solid, Ethyl acetate
  solubility: < 5000 µg/mL
[1]; ethyl formate, 40 °C, organic solvent or mixture, thermodynamic from solid, Ethyl formate
  solubility: < 5000 µg/mL
[1]; ethyleneglycol, 40 °C, organic solvent or mixture, thermodynamic from solid, Ethyleneglycol
  solubility: < 5000 µg/mL
[1]; isopropyl acetate, 40 °C, organic solvent or mixture, thermodynamic from solid, Isopropyl acetate
  solubility: < 5000 µg/mL
[1]; methanol, 40 °C, organic solvent or mixture, thermodynamic from solid, Methanol
  solubility: < 5000 µg/mL
[1]; methylethyl ketone, organic solvent or mixture, thermodynamic from solid, Methylethyl ketone
  solubility: < 5000 µg/mL
[1]; methylisobutyl ketone, organic solvent or mixture, thermodynamic from solid, Methylisobutyl ketone
  solubility: < 5000 µg/mL
[1]; nitromethane, organic solvent or mixture, thermodynamic from solid, Nitromethane
  solubility: < 5000 µg/mL
[1]; tert-butylmethyl ether, organic solvent or mixture, thermodynamic from solid, tert-Butylmethyl ether
  solubility: < 5000 µg/mL
[1]; tetrahydrofuran, organic solvent or mixture, thermodynamic from solid, Tetrahydrofuran
  solubility: < 5000 µg/mL
[1]; water, thermodynamic from solid, Water
  solubility: 10000 to 100000 µg/mL
[2]
  form by XRPD upon storage at 40° C./75% RH: completely converted to form 1

## Cn1ncc2c1Nc1ccccc1NC2 [L-tartrate form 1, L-tartaric acid addition salt of 1-methyl-1,4,5,10-tetrahydropyrazolo[3,4-b][1,5]benzodiazepine]
[3]
  change in form by XRPD post-DVS analysis: No evidence of form changes or hydrate formation
  hygroscopicity: slightly hygroscopic
  DVS mass increase: about 0.6%
[3]; listed as L-tartrate salt
  hygroscopicity: slightly hygroscopic
  DVS mass increase: about 0.6 wt. %
  change in form by XRPD post-DVS analysis: no changes in form
[4]; conclusion of salt screen
  thermal stability and hygroscopicity: acceptable thermal stability and hygroscopicity
[4]; oven at 40° C. for about 24 hours, listed as Tartrate pattern 1
  Post-Drying (XRPD pattern): Pattern 1
[4]; salt screen summary
  Comments (stability): Good
[4]; stability chamber at 40° C./75% RH for about 24 hours, listed as Tartrate pattern 1
  Post 40° C./75% RH (XRPD pattern): Pattern 1
[5]
  changes in form by XRPD: no changes in form
  changes in purity by HPLC: did not identify any significant changes in purity
[6]; material slurried in water
  change in XRPD pattern: No change in XRPD pattern
[6]
  salt disproportionation: Salt disproportionation was not observed
[6]; listed as L-tartrate
  salt disproportionation: No evidence
[7]
  change in XRPD pattern: No change in XRPD pattern
  hydrate formation: Hydrate formation was not observed
[7]; listed as L-tartrate
  hydrate formation: No evidence
[8]; PBS buffer at pH 7.4, ambient temperature, about 24 hours, HPLC
  solubility: 6300 µg/mL
[8]; mother liquor of PBS pH 7.4 slurry
  pH (t = 24 h): 3.36
